The target in experiment [1] is T1, cytochrome c oxidase (CcO) purified from bovine heart (Bos taurus, UniProt P00396+P68530).
T1 construct: Cytochrome oxidase was isolated from bovine heart mitochondria; from tissue; host or cells: bovine heart mitochondria
As to the kind of experiment: Cytochrome oxidase activity assay (oxygen uptake, Clark-type electrode; ascorbate + TMPD + cytochrome c). The class given is biochemical. As to conditions: for Inhibition of CcO Oxidase Activity, DM Influence: effect of dodecyl-maltoside on the inhibition; for Kd: X-axis intercept; for slope tangent of Ki(app) vs [DM], ratio Ki:Kc: ratio of the affinities of hormone and DM. On the procedure: Cytochrome oxidase was isolated from bovine heart mitochondria using the modified method of Fowler et al. as described previously by Vygodina et al..
Cytochrome oxidase activity assay. Oxygen uptake rates were measured with a covered Clark-type electrode by an Oxytherm instrument (Hansatech, UK) in a thermostatted cell at 25 °C with permanent stirring. The assays were performed in a basic medium containing 50 mM Hepes, 50 mM Tris, pH 7.5 and 0.1 mM EDTA. The medium was also supplemented with indicated concentrations of DM which are given throughout the text in mM (0.05% ≈ 1.0 mM DM). 5 mM ascorbate, 0.1 mM TMPD and 10 µM cytochrome c were used as the oxidation substrate. Other details are indicated in the legends to figures.
In order to determine Ki(app), the titration curves in Figure 2B were approximated by Equation (2) that connects normalized activity, v, with testosterone concentration, [I].

In experiment [2] the target is T1, cytochrome c oxidase (CcO) purified from bovine heart. Nature of the experiment: Peroxidase activity of CcO (o-dianisidine peroxidation by H2O2). Format: biochemical. As to conditions: for Inhibition of CcO Peroxidase Activity: 0.2 mM o-dianisidine, 4 mM H2O2, 0.6 µM CcO. On the procedure: Peroxidase activity of CcO was assayed as described by Vygodina and Konstantinov by following spectrophotometrically peroxidation of 0.2 mM o-dianisidine at 432 nm minus 580 nm in a dual-wavelength SLM Aminco DW-2000 spectrophotometer (USA). The reaction mixture contained 0.6 µM CcO in the aerobic basic medium supplemented with different concentrations of DM. No o-dianisidine oxidase activity was observed and the peroxidase reaction was initiated by addition of 4 mM H2O2.

For experiment [3], the target named is T2, cytochrome c oxidase (CcO) purified from bovine heart, heme a3 (Bos taurus, UniProt P00396+P68530).
T2 construct: Cytochrome oxidase was isolated from bovine heart mitochondria; from tissue; host or cells: bovine heart mitochondria
Nature of the experiment: Absorption spectra of CcO (hormone-induced difference spectra). Format: binding. As to conditions: for Spectral Response Induced in Oxidized CcO: air-oxidized CcO; for Magnitude ε of the spectral shift induced in oxidized CcO: estradiol: 1 mM hormone, pH 8.0, 437 minus 415 nm. On the procedure: Absorption spectra of CcO were recorded with a Cary 300 Bio spectrophotometer (Varian, Palo Alto, CA, USA) in semi-micro cuvettes with blackened walls and 10 mm light pathway (Hellma, Müllheim, Germany), in the basic medium at pH 8.0 supplemented with indicated different additions. The kinetics of spectral changes was monitored in a dual-wavelength mode in a SLM Aminco DW-2000 spectrophotometer.

Experiment [4] addresses T1, cytochrome c oxidase (CcO) purified from bovine heart. The arrangement: method as in the paper is submitted for publication. As to conditions: from study on inhibition of CcO by Triton X-100; ref the paper is submitted for publication; read-out: affinity between DM and CcO, Kc; cited from earlier work.
The next experiment has as its system CcO from R. sphaeroides. The arrangement: method as in PMID 24073649. As to conditions: cited from earlier work.
Another experiment relates to human endothelial cells. The arrangement: method as in PMID 17267145. To be noted: read-out: IC50% for inhibition of cell growth; cited from earlier work.
Experiment [5] addresses T3, cytochrome c oxidase (CcO) purified from bovine heart, electron transfer from heme a to heme a3 (Bos taurus, UniProt P00396+P68530).
T3 construct: Cytochrome oxidase was isolated from bovine heart mitochondria; from tissue; host or cells: bovine heart mitochondria
Nature of the experiment: Stopped-flow kinetics of CcO (heme a3) reduction by dithionite in the presence of RuAm. Format: biochemical. As to conditions: for rate constant of heme a3 reduction, rapid phase: control 105.3; for rate constant of heme a3 reduction, slow phase: control 6.15. On the procedure:
The kinetics of CcO reduction by dithionite in the presence of ruthenium hexammine (RuAm) was studied in an Applied Photophysics SX-20 stopped-flow spectrophotometer (UK) operated in a diode array mode, using a 20 µL cell with 1 cm optical pathway. The spectra in the 280–720 nm range were collected with a minimal interval of 1 ms. The assay medium contained 100 mM Hepes, 100 mM Tris, 50 mM KCl, 100 µM EGTA, catalase (2 µL/5 mL of the solution, indicated activity 23,000 units/mg protein), 0.05% DM, pH 8.0. Aerobic buffer with 6 µM CcO and 0.4 mM or 1 mM estradiol was rapidly mixed with the equal volume of the same buffer containing 40 mM sodium dithionite and 10 mM RuAm.
Procession of the stopped-flow data was performed with ProKineticist software provided with the Applied Photophysics SX-20 instrument, as well as by using Origin 7 and Origin 9 Microcal software.
We investigated effect of estradiol on the kinetics of electron transfer from heme a to heme a3. To this end, the kinetics of the hemes’ reduction by dithionite in the presence of RuAm was studied. In the experiment shown in Figure 4, 3 µM CcO was mixed rapidly with 20 mM dithionite and 5 mM RuAm and the reaction time course was followed by taking the spectra each ms in the 280–720 nm range in a rapid mixing diode array spectrophotometer.

The target in the next experiment is R. sphaeroides CcO (Cereibacter sphaeroides, UniProt P33517+Q03736). Nature of the experiment: Preliminary experiments on inhibition of R. sphaeroides CcO. The class given is biochemical, Rhodobacter sphaeroides.
R. sphaeroides CcO, sequence (P33517 whole entry): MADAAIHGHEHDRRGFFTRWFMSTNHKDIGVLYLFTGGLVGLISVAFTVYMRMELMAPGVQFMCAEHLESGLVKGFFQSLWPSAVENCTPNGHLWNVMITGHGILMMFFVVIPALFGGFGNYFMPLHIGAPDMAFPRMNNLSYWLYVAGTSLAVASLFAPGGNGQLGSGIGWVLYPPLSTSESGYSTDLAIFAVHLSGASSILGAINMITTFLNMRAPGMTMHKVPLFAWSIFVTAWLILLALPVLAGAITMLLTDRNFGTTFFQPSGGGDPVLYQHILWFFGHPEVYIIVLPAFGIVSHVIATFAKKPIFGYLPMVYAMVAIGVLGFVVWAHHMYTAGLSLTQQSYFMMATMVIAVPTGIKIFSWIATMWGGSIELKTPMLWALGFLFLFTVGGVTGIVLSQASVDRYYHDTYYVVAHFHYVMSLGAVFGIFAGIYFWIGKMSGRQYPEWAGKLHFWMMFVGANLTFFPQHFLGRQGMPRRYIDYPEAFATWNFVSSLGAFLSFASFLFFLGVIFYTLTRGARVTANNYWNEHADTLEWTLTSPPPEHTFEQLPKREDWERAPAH
R. sphaeroides CcO, sequence (Q03736 26-290 limits assumed): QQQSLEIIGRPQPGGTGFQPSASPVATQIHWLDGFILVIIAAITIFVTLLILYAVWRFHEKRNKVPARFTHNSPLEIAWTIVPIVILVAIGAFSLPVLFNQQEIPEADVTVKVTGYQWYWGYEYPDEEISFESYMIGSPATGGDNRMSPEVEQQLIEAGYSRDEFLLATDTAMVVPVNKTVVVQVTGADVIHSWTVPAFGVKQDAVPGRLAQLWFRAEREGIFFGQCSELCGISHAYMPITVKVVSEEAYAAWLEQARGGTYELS
[6] abbreviates: true Ki extrapolated to zero dodecyl-maltoside (DM) from plot of Ki(app) vs [DM], 25 °C, pH 7.5, read-out: Inhibition of CcO Oxidase Activity, Ki (DM→0).

The structures appear in SMILES notation. “Also recorded” adds a separate entry of the source. Like-named read-outs stand apart in the source and are kept apart here. Bounds are passed on as bounds.

Data on 13 molecules can be found in publication PMC7601700, “Interaction of Cytochrome C Oxidase with Steroid Hormones” (Cells, 2020).

Turning to `C=C1CC[C@H](O)C/C1=C/C=C1\CCC[C@]2(C)[C@@H]([C@H](C)CCCC(C)C)CC[C@@H]12` [Cholecalciferol (vitamine D3), Cholecalciferol], the “Inhibition of CcO Oxidase Activity, DM Influence” value (“Inhibition … DM Influence” for short) in experiment [1] is “competes 1:1”. Moreover, the Ki in experiment [1] (setting [6]) was 9 µM; in experiment [2] (read-out: Ki for inhibition of CcO peroxidase activity) it was roughly 200 µM. In experiment [2], the “Inhibition of CcO Peroxidase Activity” value is “yes”. Further, in experiment [3], the “Spectral Response Induced in Oxidized CcO” value (“Spectral Response Induced” below) is reported as “red shift of a3^3+”. Further, the “Magnitude ε of the spectral shift induced in oxidized CcO” value in experiment [3] (13 mM DM) was found to be 25 mM^−1⋅cm^−1.
On to `CCCCCCCCCCCCO[C@@H]1O[C@H](CO)[C@@H](O[C@H]2O[C@H](CO)[C@@H](O)[C@H](O)[C@H]2O)[C@H](O)[C@H]1O` [DM, dodecyl-maltoside], for which the Kd in experiment [1] (from plot of Ki(app) for estradiol vs [DM], read-out: dissociation constant for DM in the absence of estradiol, Kc) is 1470 µM; in experiment [1] (from plot of Ki(app) for testosterone vs [DM], read-out: dissociation constant for DM in the absence of testosterone, Kc), 1300 µM; in experiment [4] it was 1200 µM.
On to `C[C@]12CC[C@H](O)CC1=CC[C@@H]1[C@@H]2CC[C@]2(C)C(=O)CC[C@@H]12` [Dehydroepiandrosterone (DHEA), Dehydroepiandrosterone], for which, in experiment [1], the Ki came to 110 µM and the “Inhibition … DM Influence” value was “competes 1:1”. Moreover, the “Inhibition of CcO Peroxidase Activity” value in experiment [2] is “no”.
`CC(=O)[C@H]1CC[C@H]2[C@@H]3CCC4=CC(=O)CC[C@]4(C)[C@H]3CC[C@]12C` [Progesterone]: the “Inhibition … DM Influence” value in experiment [1] is “competes 1:1”. In addition, the Ki in experiment [1] (setting [6]) is 120 µM. For the same molecule, in experiment [2], the “Inhibition of CcO Peroxidase Activity” value was “no”.
On to `C[C@]12CC[C@H]3[C@@H](CCC4=CC(=O)CC[C@@]43C)[C@@H]1CC[C@@H]2O` [Testosterone], for which the Ki in experiment [1] was 80 µM. Moreover, the “maximal level of inhibition by excess testosterone” value in experiment [1] (1 mM DM) is recorded as “ca. 25%”. For the same molecule, the “inhibition of CcO oxidase activity” value in experiment [1] (4 mM testosterone, 1 mM DM) is “inhibits the activity but weakly”; in experiment [1] (4 mM testosterone, 20 mM DM), “strong inhibition; also recorded: does inhibit”. In experiment [1], the “Inhibition … DM Influence” value is listed as “competes 1:1; increases maximal level of inhibition”. The “inhibition of CcO oxidase activity directly observed (fold)” value in experiment [1] (high concentrations of both testosterone and DM (Figure 2A, trace 1: 4 mM testosterone, 20 mM DM)) is no more than 3 fold. The “slope tangent of Ki(app) vs [DM], ratio Ki:Kc” value in experiment [1] is 0.05. Also, the inhibition at 100 µM in experiment [1] (read-out: inhibition of bovine oxidase) turned out to be 13%. For the same molecule, the entries for the “Inhibition of CcO Peroxidase Activity” value in experiment [2] and in experiment [2] (listed as testosterone) were “no” and “do not inhibit”, respectively. For the same molecule, the “Spectral Response Induced” value in experiment [3] is listed as “no”. The “effect on the activity of CcO from R. sphaeroides” value (“effect on the activity of CcO” for short) with CcO from R. sphaeroides was “did not reveal inhibition”. The IC50 in the experiment with human endothelial cells was 100 µM.
On to `C[C@]12CCC(=O)C=C1CC[C@@H]1[C@@H]2CC[C@]2(C)C(=O)CC[C@@H]12` [androstenedione], for which, in the experiment on human endothelial cells, the IC50 is 375 µM.
With `CC(C)CCC[C@@H](C)[C@H]1CC[C@H]2[C@@H]3CC=C4C[C@@H](O)CC[C@]4(C)[C@H]3CC[C@]12C` [cholesterol], the “inhibition of the oxidase activity of the bovine heart enzyme” value in experiment [1] (unpublished data of the authors) is reported as “does not inhibit”.
With `C[C@]12CC[C@@H]3c4ccc(OC(=O)c5ccccc5)cc4CC[C@H]3[C@@H]1CC[C@@H]2O` [estradiol-3-benzoate], the “inhibition of oxygen consumption (oxidase activity)” value in experiment [1] (0.5 mM estradiol, 1 mM DM) is “approximately by half; also recorded: does inhibit”. Besides, the “inhibition of CcO oxidase activity (fold)” value in experiment [1] (2 mM estradiol, 1 mM DM) was roughly 4 fold. Moreover, the “inhibition of CcO oxidase activity” value in experiment [1] (2 mM estradiol, 20 mM DM) was “only a slight inhibition”. Besides, the “Inhibition … DM Influence” value in experiment [1] is given as “competes 1:1”. In experiment [1], the “slope tangent of Ki(app) vs [DM], ratio Ki:Kc” value amounted to 0.25. Further, the Ki in experiment [1] (setting [6]) was 370 µM. Besides, the results for the “Inhibition of CcO Peroxidase Activity” value in experiment [2] and in experiment [2] (listed as estradiol) were “no” and “do not inhibit”, respectively. The “time for the spectral shift to reach completion after hormone addition” value in experiment [3] (1 mM estradiol, 13 mM DM, oxidized CcO) was 3 to 5 min. Besides, the “magnitude of spectral shift relative to the effect induced by cyanide” value in experiment [3] (1 mM estradiol, cyanide effect from ref 20) is “ca. 1/5”. Further, the “Spectral Response Induced” value in experiment [3] was “red shift of a3^3+”. Further, in experiment [3] (13 mM DM), the “Magnitude ε of the spectral shift induced in oxidized CcO” value is 10 mM^−1⋅cm^−1. The “effect on the absorption spectrum of the reduced CcO” value in experiment [3] (reduced CcO) is “No effect”. Also, the “rate constant of heme a3 reduction, rapid phase” value in experiment [5] (0.2 mM estradiol, 3 µM CcO, 20 mM dithionite, 5 mM RuAm) amounted to 67.75 s⁻¹; in experiment [5] (0.5 mM estradiol), 39.6 s⁻¹. In addition, the results for the “rate constant of heme a3 reduction, slow phase” value in experiment [5] (0.2 mM estradiol) and in experiment [5] (0.5 mM estradiol) were 5.3 s⁻¹ and 2.5 s⁻¹, respectively. Besides, the “decrease of the rate constants of both phases of heme a3 reduction” value in experiment [5] (0.5 mM estradiol) was “ca. 60%”. Further, at R. sphaeroides CcO, the “inhibition of R. sphaeroides CcO” value is “inhibition”. Also, the “effect on the activity of CcO” value with CcO from R. sphaeroides is recorded as “did not reveal inhibition”.
Consider `C[C@]12CC[C@H]3[C@@H](CCC4=CC(=O)CC[C@@H]43)[C@@H]1CC[C@@H]2O` [nandrolone], for which the IC50 in the experiment with human endothelial cells is 9 µM.
For the molecule `C[C@]12CC[C@H]3[C@@H](CCC4=CC(O)CC[C@@H]43)[C@@H]1CCC2O` (stereo partly shown) [norandrostenediol], the IC50 in the experiment with human endothelial cells was 6000 µM.
For the molecule `C[C@]12CC[C@H]3[C@@H](CCC4=CC(=O)CC[C@@H]43)[C@@H]1CCC2=O` [norandrostenedione], in the experiment with human endothelial cells, the IC50 is 500 µM.
Turning to `CC1=C(/C=C/C(C)=C/C=C/C(C)=C/C(=O)O)C(C)(C)CCC1` [retinoic acid], the “effect on the activity of CcO” value in the experiment with CcO from R. sphaeroides is “strongly inhibited”.
For the molecule `N[C@@H](Cc1cc(I)c(Oc2ccc(O)c(I)c2)c(I)c1)C(=O)O` [thyroid hormone T3], the “effect on the activity of CcO” value in the experiment on CcO from R. sphaeroides is “inhibited the enzyme; also recorded: strongly inhibited”.

A word on the inhibition: it is the drop in the measured response relative to a control, in per cent. A word on the IC50: it is the concentration at which inhibition is half-maximal.
